Where two headings read alike, the source gives them in different places.
Legend:
[1] = target: T1, FSHR (Homo sapiens, UniProt P23945); assay: EC50 of cyclic AMP production in CHO FSHR cells + EC20 FSH (Assay A); assay type: cell-based; settings: CHO FSHR cells + EC20 FSH, cAMP HTRF; read-out: Assay A: EC50 of cyclic AMP production
T1 construct: expressed in transfected cells; host or cells: CHO (Cho-FSHR-LUC-1-1-43)
T1 sequence (P23945 18-695): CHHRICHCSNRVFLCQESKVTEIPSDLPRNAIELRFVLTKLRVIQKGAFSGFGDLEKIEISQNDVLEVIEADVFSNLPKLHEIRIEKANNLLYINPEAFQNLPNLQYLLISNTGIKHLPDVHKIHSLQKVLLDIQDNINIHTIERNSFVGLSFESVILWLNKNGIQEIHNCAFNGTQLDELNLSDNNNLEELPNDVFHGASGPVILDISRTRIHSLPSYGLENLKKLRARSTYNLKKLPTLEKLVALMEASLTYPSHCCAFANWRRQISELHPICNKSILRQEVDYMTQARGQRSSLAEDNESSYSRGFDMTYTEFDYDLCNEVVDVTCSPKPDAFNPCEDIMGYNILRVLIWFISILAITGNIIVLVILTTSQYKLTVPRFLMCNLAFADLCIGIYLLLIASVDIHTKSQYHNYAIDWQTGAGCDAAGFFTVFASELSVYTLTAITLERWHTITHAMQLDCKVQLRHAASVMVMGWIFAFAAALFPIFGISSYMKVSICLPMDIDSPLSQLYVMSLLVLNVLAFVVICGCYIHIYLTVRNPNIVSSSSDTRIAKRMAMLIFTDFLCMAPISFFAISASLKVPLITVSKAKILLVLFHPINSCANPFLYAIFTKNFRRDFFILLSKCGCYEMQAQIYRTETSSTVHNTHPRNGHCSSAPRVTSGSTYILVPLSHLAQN
In short: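 cAMP HTRF read-out (665 nm/620 nm ratio) after 1 h at 37° C of Cho-FSHR-LUC cells treated with serially diluted test compound plus EC20 FSH ([…]) and IBMX (final 200 μM). Responses given as percent of maximal FSH-standard effect.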

[2] = target: T2, follicle-stimulating hormone (FSH) receptor (Rattus norvegicus, UniProt P20395); assay: Rat granulosa EC50 FSH (Assay B); assay type: cell-based; settings: for Emax at 30 µM: read-out: Assay B: percental effect (response) relative to the maximum response of the FSH standard; for EC50: rat granulosa cells, read-out: Assay B: Rat granulosa EC50 FSH
T2 construct: endogenous in cells; host or cells: primary rat granulosa cells
T2 sequence (P20395 18-692): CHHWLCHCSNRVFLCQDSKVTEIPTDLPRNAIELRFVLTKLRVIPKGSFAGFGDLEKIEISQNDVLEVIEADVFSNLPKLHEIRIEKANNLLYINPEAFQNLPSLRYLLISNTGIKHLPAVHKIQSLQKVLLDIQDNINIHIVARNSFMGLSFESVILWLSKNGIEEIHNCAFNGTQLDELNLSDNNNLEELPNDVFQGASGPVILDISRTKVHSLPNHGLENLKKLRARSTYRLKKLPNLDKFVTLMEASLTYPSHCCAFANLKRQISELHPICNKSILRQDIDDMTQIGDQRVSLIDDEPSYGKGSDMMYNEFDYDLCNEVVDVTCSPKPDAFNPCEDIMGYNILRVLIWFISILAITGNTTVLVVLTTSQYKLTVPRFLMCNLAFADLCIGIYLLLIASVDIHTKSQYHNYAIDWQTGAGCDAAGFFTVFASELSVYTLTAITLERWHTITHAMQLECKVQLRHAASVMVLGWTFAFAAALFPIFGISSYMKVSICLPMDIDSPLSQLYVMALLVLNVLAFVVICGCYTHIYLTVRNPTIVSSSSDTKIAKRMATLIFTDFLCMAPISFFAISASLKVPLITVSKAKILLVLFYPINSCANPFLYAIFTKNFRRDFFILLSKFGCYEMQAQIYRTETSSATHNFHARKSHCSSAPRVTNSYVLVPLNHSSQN
Method: Rat Granulosa EC50 FSH (Assay B)
The assay was performed pursuant to the teaching of Yanofsky et al. (2006) Allosteric activation of the follicle-stimulating hormone (FSH) receptor by selective, nonpeptide agonists (JBC 281(19): 13226-13233, which is incorporated by reference in the disclosure of the invention).

Row | Structure (SMILES) | EC50 [1] [nM] | Emax at 30 µM ([2]; @ 30 μM) [%] | EC50 [2] [nM] | Emax at 30 µM [2] [%]
1 | COc1cc2c(cc1C=C(C)C)-c1c(c(C(=O)N3CCCC(C(=O)O)CC3)nn1-c1ccsc1)CO2 (stereo not shown) [Compound 18, 1-[7-Methoxy-8-(2-methyl-propenyl)-1-thiophen-3-yl-1,4-dihydro-chromeno[4,3-c]pyrazole-3-carbonyl]-azepane-4-carboxylic acid] | 1000 to 5000 | 30 | – | –
2 | COc1cc2c(cc1-c1cccnc1)-c1c(c(C(=O)N3CCCN(C(=O)C4CCC4)CC3)nn1-c1ccsc1)CO2 [Compound 3, (4-Cyclobutanecarbonyl-[1,4]diazepan-1-yl)-(7-methoxy-8-pyridin-3-yl-1-thiophen-3-yl-1,4-dihydro-chromeno[4,3-c]pyrazol-3-yl)-methanone] | < 100 | – | 1000 to 5000 | –
3 | COc1cc2c(cc1-c1c(C)n[nH]c1C)-c1c(c(C(=O)N3CCOCC3(C)C)nn1-c1ccsc1)CO2 [Compound 126, (3,3-Dimethyl-morpholin-4-yl)-[8-(3,5-dimethyl-1H-pyrazol-4-yl)-7-methoxy-1-thiophen-3-yl-1,4-dihydro-chromeno[4,3-c]pyrazol-3-yl]-methanone] | < 100 | – | 100 to 1000 | –
4 | COc1cc2c(cc1C(O)C(C)C)-c1c(c(C(=O)N3CCOCC3(C)C)nn1-c1ccsc1)CO2 (stereo not shown) [Compound 131, (3,3-Dimethyl-morpholin-4-yl)-[8-(1-hydroxy-2-methyl-propyl)-7-methoxy-1-thiophen-3-yl-1,4-dihydro-chromeno[4,3-c]pyrazol-3-yl]-methanone] | < 100 | – | 1000 to 5000 | –
5 | CCCn1cc(-c2cc3c(cc2OC)OCc2c(C(=O)N4CCOCC4(C)C)nn(-c4ccsc4)c2-3)cn1 [Compound 211, (3,3-Dimethyl-morpholin-4-yl)-[7-methoxy-8-(1-propyl-1H-pyrazol-4-yl)-1-thiophen-3-yl-1,4-dihydro-chromeno[4,3-c]pyrazol-3-yl]-methanone] | < 100 | – | < 100 | –
6 | COc1cc2c(cc1-c1c(C)nn(C)c1C)-c1c(c(C(=O)N3CCOCC3(C)C)nn1-c1ccsc1)CO2 [Compound 121, (3,3-Dimethyl-morpholin-4-yl)-[7-methoxy-1-thiophen-3-yl-8-(1,3,5-trimethyl-1H-pyrazol-4-yl)-1,4-dihydro-chromeno[4,3-c]pyrazol-3-yl]-methanone] | < 100 | – | > 5000 | –
7 | COc1cc2c(cc1-c1cccnc1)-c1c(c(C(=O)N(C)C(C)(C)C)nn1-c1ccsc1)CO2 [Compound 2, 7-Methoxy-8-pyridin-3-yl-1-thiophen-3-yl-1,4-dihydro-chromeno[4,3-c]pyrazole-3-carboxylic Acid tert-butyl-methyl-amide] | < 100 | – | – | 54
8 | COc1cc2c(cc1C1=CCCCO1)-c1c(c(C(=O)N(C)C(C)(C)C)nn1-c1ccsc1)CO2 [Compound 148, 8-(5,6-Dihydro-4H-pyran-2-yl)-7-methoxy-1-thiophen-3-yl-1,4-dihydro-chromeno[4,3-c]pyrazole-3-carboxylic acid tert-butyl-methyl-amide] | < 100 | – | 100 to 1000 | –
9 | [2H]C([2H])([2H])N(C(=O)c1nn(-c2ccsc2)c2c1COc1cc(OC)c(-c3ccn(C)c3)cc1-2)C1CCOC1 (stereo not shown) [Compound 146] | 100 to 1000 | – | 100 to 1000 | –
10 | COc1cc2c(cc1C=C(C)C)-c1c(c(C(=O)NCCN3CCOC3=O)nn1-c1ccsc1)CO2 [Compound 13, 7-Methoxy-8-(2-methyl-propenyl)-1-thiophen-3-yl-1,4-dihydro-chromeno[4,3-c]pyrazole-3-carboxylic acid [2-(2-oxo-oxazolidin-3-yl)-ethyl]-amide] | 100 to 1000 | – | 1000 to 5000 | –
11 | COc1cc2c(cc1-c1ccn(C)n1)-c1c(c(C(=O)N3CCNCC3(C)C)nn1-c1ccsc1)CO2 [Compound 169, (2,2-Dimethyl-piperazin-1-yl)-[7-methoxy-8-(1-methyl-1H-pyrazol-3-yl)-1-thiophen-3-yl-1,4-dihydro-chromeno[4,3-c]pyrazol-3-yl]-methanone] | < 100 | – | 100 to 1000 | –
12 | COc1cc2c(cc1C1CCOC1)-c1c(c(C(=O)N(C)C(C)(C)C)nn1-c1ccsc1)CO2 (stereo not shown) [Compound 194, 7-Methoxy-8-(tetrahydro-furan-3-yl)-1-thiophen-3-yl-1,4-dihydro-chromeno[4,3-c]pyrazole-3-carboxylic Acid tert-butyl-methyl-amide] | < 100 | – | 100 to 1000 | –
13 | COc1cc2c(cc1-c1cccn1C)-c1c(c(C(=O)N3CCOCC3(C)C)nn1-c1ccsc1)CO2 [Compound 125, (3,3-Dimethyl-morpholin-4-yl)-[7-methoxy-8-(1-methyl-1H-pyrrol-2-yl)-1-thiophen-3-yl-1,4-dihydro-chromeno[4,3-c]pyrazol-3-yl]-methanone] | < 100 | – | 1000 to 5000 | –
14 | [2H]C([2H])([2H])N(C(=O)c1nn(-c2ccsc2)c2c1COc1cc(OC)c(CC(C)C)cc1-2)C1(C)COC1 [Compound 163] | < 100 | – | 100 to 1000 | –
15 | [2H]C([2H])([2H])OC1(CN(C(=O)c2nn(-c3ccsc3)c3c2COc2cc(OC)c(-c4ccn(C)n4)cc2-3)C([2H])([2H])[2H])COC1 [Compound 167] | 100 to 1000 | – | 100 to 1000 | –
16 | COc1cc2c(cc1OC(C)C)-c1c(c(C(=O)N(C)C(C)(C)C)nn1-c1ccsc1)CO2 [Compound 19, 8-Isopropoxy-7-methoxy-1-thiophen-3-yl-1,4-dihydro-chromeno[4,3-c]pyrazole-3-carboxylic Acid tert-butyl-methyl-amide] | < 100 | – | 1000 to 5000 | –
17 | COc1cc2c(cc1-c1ccn(C)n1)-c1c(c(C(=O)N3CCOCC3C)nn1-c1ccsc1)CO2 (stereo not shown) [Compound 218] | < 100 | – | 100 to 1000 | –
18 | COc1cc2c(cc1C1CCCO1)-c1c(c(C(=O)N(C)C(C)(C)C)nn1-c1ccsc1)CO2 (stereo not shown) [Compound 201, 7-Methoxy-8-(tetrahydro-furan-2-yl)-1-thiophen-3-yl-1,4-dihydro-chromeno[4,3-c]pyrazole-3-carboxylic Acid tert-butyl-methyl-amide] | 100 to 1000 | – | 1000 to 5000 | –
19 | [2H]C([2H])([2H])OC1(CN(C(=O)c2nn(-c3ccsc3)c3c2COc2cc(OC)c(-c4ccn(C)c4)cc2-3)C([2H])([2H])[2H])COC1 [Compound 168] | < 100 | – | 100 to 1000 | –
20 | COc1cc2c(cc1SC(C)C)-c1c(c(C(=O)N(C)C(C)(C)C)nn1-c1ccsc1)CO2 [Compound 52, 8-isopropylsulfanyl-7-methoxy-1-thiophen-3-yl-1,4-dihydro-chromeno[4,3-c]pyrazole-3-carboxylic Acid tert-butyl-methyl-amide] | < 100 | – | 100 to 1000 | –
21 | COc1cc2c(cc1-c1ccn(C)c1)-c1c(c(C(=O)NC3(CCO)COC3)nn1-c1ccsc1)CO2 [Compound 186, 7-Methoxy-8-(1-methyl-1H-pyrrol-3-yl)-1-thiophen-3-yl-1,4-dihydro-chromeno[4,3-c]pyrazole-3-carboxylic acid [3-(2-hydroxy-ethyl)-oxetan-3-yl]-amide] | < 100 | – | 100 to 1000 | –
22 | [2H]C([2H])([2H])N(C(=O)c1nn(-c2ccsc2)c2c1COc1cc(OC)c(-c3cn(C([2H])([2H])[2H])nc3C)cc1-2)C1CCOC1 (stereo not shown) [Compound 143] | 100 to 1000 | – | – | –

— patent publication US11365199B2, “Pyrazole compounds as modulators of FSHR and uses thereof” (Merck Patent GmbH, priority 2013, dated 2022)
